# Reference: paper PMC4859512, “Polyamino-Isoprenic Derivatives Block Intrinsic Resistance of P. aeruginosa to Doxycycline and Chloramphenicol In Vitro” (PLoS ONE, 2016)
# Tests used:
# P. aeruginosa PA01 = test: Comparison of efficiency between compounds and PAßN (compound gradient with 2 mg/L doxycycline); assay type: cell-based, Pseudomonas aeruginosa; conditions: for concentration needed to inhibit growth in the presence of doxycycline: PA01, doxycycline 2 mg/L, 18 h
# Experimental: Serial dilutions of each compound (from 270 μM to 0.95 μM for PAßN and from 135 μM to 0.06 μM for 3) were prepared in microplates. Doxycycline (2 mg/L) was then added to each well before inoculation of bacteria (5x10^5 cfu/mL). Optical density (600 nm) was measured after 18 hours at 37°C. Only the relevant part of the graphs are shown. Experiments were performed in triplicate.
# First, we performed a checkerboard assay to analyze the synergy between doxycycline and the polyamino-isoprenic compound and between doxycycline and PAβN. For both, compound 3 and PAβN we observed a synergistic inhibition of growth when combined with doxycycline with a FIC Index of 0.09 (S2 Table). […] PAßN is generally used at a concentration greater than 10 μM to inhibit the resistance of P. aeruginosa with respect to various antibiotics, and, to our knowledge, no data have been reported in the literature on its use in combination with doxycycline. The percentage of growth inhibition was monitored as a function of compound concentration, and the results are presented in Fig 3.
# [1] = tested on: P. aeruginosa strains over-expressing efflux pumps (PA01, PT629, PA01-ERY^R, PA0-7H, CMZ091, FB1); test: Spotting of logarithmic dilutions on MH agar with antibiotic and compound 3; assay type: cell-based, Pseudomonas aeruginosa
# Experimental: In a second experiment, 5 μL of logarithmic dilutions of an overnight culture of the 6 strains described in Table 1 were spotted on the MH agar plates prepared as above. An additional assay was also performed with these 6 strains using chloramphenicol as antibiotic instead of doxycycline.
# Fig 4 Compound 3 activity against P. aeruginosa strains over-expressing efflux pumps. The ability of bacteria to grow under various conditions was assessed in solid media containing, in a: 2 mg/L doxycycline (left) or a combination of 2 mg/L doxycycline and 10 μM compound 3 (right) and in b: 4 mg/L chloramphenicol (left) or a combination of 4 mg/L chloramphenicol and 10 μM compound 3 (right). 5 μL of logarithmic dilutions of an overnight culture of each strain were spotted on the plates. From top to bottom, PA01, PT629, PA01-ERY^R, PA0-7H, CMZ091 and FB1.
compound,measurement,setting,value
CC(C)=CCCC(C)=CCCC(C)=CCNCCCNCCCCNCCCN [Compound 3],concentration needed to inhibit growth in the presence of doxycycline,P. aeruginosa PA01,~1.22 mg/L
same,concentration needed to inhibit growth in the presence of doxycycline,P. aeruginosa PA01; graphically determined on Fig 3,approximately 3 μM
same,potency in comparison with PAßN,P. aeruginosa PA01; adjuvant of doxycycline,approximately 10 times
same,dilution of overnight culture at which growth was observed,"[1]; 2 μg/mL doxycycline + 10 μM compound 3, PA01 or strains overproducing MexCD or MexEF",10^−2
same,dilution above which no growth was observed,"[1]; 2 μg/mL doxycycline + 10 μM compound 3, all cases",10^−5
same,dilution of overnight culture at which growth was observed,"[1]; 2 μg/mL doxycycline + 10 μM compound 3, cells overproducing MexAB or MexXY",10^−4
same,growth on agar,"[1]; 2 μg/mL doxycycline + 10 μM compound 3, ΔmexB strain",did not grow at any of the dilutions
same,effect on growth with chloramphenicol,"[1]; 4 mg/L chloramphenicol + 10 μM compound 3, PT629 and PA0-7H",slight effect
